Assay results: US20100247427A1, “Methods of inhibiting cell growth and methods of enhancing radiation responses” (University of South Florida, priority 2005, published 2010)

What was measured:
DU145 cells = assay: TUNEL assay for apoptosis; format: cell-based, Human; settings: Cisplatin plus radiation; FIG. 5
Protocol: TUNEL assay. Cells were labeled for apoptotic DNA strand breaks by terminal deoxyribonucleotidyl transferase-mediated dUTP nick end labeling (TUNEL) reaction using a flow cytometry assay (Roche Applied Science, Indianapolis, Ind.) according to the instructions of the supplier. DU145 cells were treated with CPA-7 for 4 hours, then irradiated, and subjected to the TUNEL assay 24 to 48 hours later. To determine cellular viability, cells were harvested by trypsinization and counted by trypan blue exclusion assay at 24 and 48 hours after irradiation. All experiments were done in triplicate.
The enhancement of radiation responsiveness was also evident when apoptosis was measured using a TUNEL assay (FIGS. 4 and 5). DU145 cells were pre-treated for 4 hours with CPA-7 or vehicle alone prior to radiation. A TUNEL assay was performed 24 hours post-radiation and the results are depicted in FIG. 4. At 24 hours, only 2% of untreated cells had undergone spontaneous apoptosis. […] In contrast, 15.7% of cells treated with both radiation and CPA-7 had undergone apoptosis at 24 hours, indicative of a synergistic effect. FIG. 5 depicts the results of a similar assay in which cells were pre-treated with CPA-7 for 24 hours prior to irradiation. […] Additionally, not all platinum complexes have this effect.

Stat3 = Stat3 (Homo sapiens, UniProt P40763); settings: other reports; cited from earlier work
Stat3, sequence (P40763 whole entry, species assumed): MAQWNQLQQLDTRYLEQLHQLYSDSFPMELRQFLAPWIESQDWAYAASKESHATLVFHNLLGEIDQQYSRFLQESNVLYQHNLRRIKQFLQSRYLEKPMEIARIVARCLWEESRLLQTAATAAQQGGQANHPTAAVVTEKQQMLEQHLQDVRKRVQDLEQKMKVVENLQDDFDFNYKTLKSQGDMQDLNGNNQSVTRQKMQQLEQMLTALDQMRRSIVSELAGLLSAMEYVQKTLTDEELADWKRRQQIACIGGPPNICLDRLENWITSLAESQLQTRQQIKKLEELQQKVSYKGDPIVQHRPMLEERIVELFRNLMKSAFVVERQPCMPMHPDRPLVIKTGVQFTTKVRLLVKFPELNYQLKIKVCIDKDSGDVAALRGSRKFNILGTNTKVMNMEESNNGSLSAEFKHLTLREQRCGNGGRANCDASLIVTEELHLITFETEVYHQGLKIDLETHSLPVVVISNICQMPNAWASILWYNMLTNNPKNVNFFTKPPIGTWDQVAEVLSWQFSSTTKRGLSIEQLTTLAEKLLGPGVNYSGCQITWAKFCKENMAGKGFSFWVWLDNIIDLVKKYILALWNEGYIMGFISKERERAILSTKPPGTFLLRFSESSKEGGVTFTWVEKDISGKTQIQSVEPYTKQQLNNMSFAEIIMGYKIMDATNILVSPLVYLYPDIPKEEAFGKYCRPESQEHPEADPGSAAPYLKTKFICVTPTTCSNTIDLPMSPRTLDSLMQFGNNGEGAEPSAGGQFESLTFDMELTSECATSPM

In the case of `N.N.[Cl][Pt][Cl]` [Cisplatin], the “apoptosis rate in combination with radiation (TUNEL)” value (DU145 cells) is listed as “not significantly enhanced” and the “modulation of Stat3 activation” value (Stat3) is listed as “does not modulate Stat3 activation”.
